According to patent US20250145599A1, “CERTAIN CHEMICAL ENTITIES, COMPOSITIONS, AND METHODS” (Retune Pharma Inc., priority 2022, published 2025):

Key:
IGF-1R = IGF-1R (Homo sapiens, UniProt P08069); test: IGF-1R biochemical assay (ADP-Glo); details: read-out: IGF1R IC50
Experimental: The inhibitory activity against IGF-1R was measured using ADP-Glo assay. The percent (%) inhibition at each concentration of compound is calculated based on and relative to the luminescence signal in the Max and Min control wells contained within each assay plate. The Max control wells contain enzyme and substrate as 0% inhibition, and the Min control wells only contain substrate without enzyme as 100% inhibition. The concentrations and % inhibition values for tested compounds are plotted and the concentration of compound required for 50% inhibition (IC50) is determined with a four-parameter logistic dose response equation.
Table 3 provides IC50 data of representative compounds against IGF-1R using ADP-Glo assay. The IC50 data are designated within the following ranges: A: ≤0.10 μM, B: >0.10 μM to ≤1 μM, C: >1 μM to ≤20 μM

Ba/F3-TEL-IGF-1R cells = test: CellTiter-Glo luminescent cell viability assay; assay type: cell-based; details: cellular IC50, Ba/F3-TEL-IGF-1R cells
Experimental: The CellTiter-Glo luminescent cell viability assay was used to determine the inhibitory activity of the compounds against IGF-1R in Ba/F3-TEL-IGF-1R cells. […] The IC50 data are designated within the following ranges: A: ≤1 μM, B: >1 μM to ≤10 μM, C: >10 μM to ≤20 μM

Chain of IGF-1R (P08069 31-1367): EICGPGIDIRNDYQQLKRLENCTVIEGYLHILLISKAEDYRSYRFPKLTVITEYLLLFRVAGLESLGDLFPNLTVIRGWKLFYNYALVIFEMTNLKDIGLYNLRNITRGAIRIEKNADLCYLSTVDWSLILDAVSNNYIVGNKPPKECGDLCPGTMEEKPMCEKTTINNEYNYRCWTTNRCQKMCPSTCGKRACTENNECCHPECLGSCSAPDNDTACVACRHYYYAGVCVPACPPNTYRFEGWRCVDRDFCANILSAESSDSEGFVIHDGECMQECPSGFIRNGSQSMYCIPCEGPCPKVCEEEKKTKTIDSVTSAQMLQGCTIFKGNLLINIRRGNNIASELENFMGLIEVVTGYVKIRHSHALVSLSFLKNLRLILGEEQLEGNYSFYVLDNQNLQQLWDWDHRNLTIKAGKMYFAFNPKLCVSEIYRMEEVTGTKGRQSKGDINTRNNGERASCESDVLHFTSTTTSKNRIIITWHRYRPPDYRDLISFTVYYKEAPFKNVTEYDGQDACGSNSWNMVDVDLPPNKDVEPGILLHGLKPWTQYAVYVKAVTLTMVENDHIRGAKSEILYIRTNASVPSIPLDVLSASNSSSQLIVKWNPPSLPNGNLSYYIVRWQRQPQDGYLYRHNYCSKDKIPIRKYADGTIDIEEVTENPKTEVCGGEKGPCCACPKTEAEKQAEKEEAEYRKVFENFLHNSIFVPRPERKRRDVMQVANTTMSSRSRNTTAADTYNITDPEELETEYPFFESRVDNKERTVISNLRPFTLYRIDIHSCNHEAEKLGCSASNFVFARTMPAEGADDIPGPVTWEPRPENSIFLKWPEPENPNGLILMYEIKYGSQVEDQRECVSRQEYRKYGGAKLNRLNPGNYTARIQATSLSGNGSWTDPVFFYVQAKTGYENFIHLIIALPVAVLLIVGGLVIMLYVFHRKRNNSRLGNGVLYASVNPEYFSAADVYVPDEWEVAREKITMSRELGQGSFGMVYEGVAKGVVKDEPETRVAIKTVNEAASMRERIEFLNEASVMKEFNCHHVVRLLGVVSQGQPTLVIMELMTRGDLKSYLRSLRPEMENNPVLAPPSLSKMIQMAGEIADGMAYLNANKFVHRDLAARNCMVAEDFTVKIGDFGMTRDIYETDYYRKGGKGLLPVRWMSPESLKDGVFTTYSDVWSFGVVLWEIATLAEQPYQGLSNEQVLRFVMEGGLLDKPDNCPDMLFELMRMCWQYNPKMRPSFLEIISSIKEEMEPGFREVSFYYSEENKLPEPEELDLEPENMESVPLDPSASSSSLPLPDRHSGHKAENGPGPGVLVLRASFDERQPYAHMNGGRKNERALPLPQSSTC

SMILES | IC50 (IGF-1R) [µM] | IC50 (Ba/F3-TEL-IGF-1R cells) [µM]
NC(=O)c1c(-c2ccc3ccc(-c4ccccc4)nc3c2)nn(C2CC(N3CCC3)C2)c1N (stereo not drawn) [Example C027, 5-amino-1-(3-(azetidin-1-yl)cyclobutyl)-3-(2-phenylquinolin-7-yl)-1H-pyrazole-4-carboxamide] | 0.1 to 1 | –
NC(=O)c1c(-c2ccc3ccc(-c4ccccc4)nc3c2)nn(C2CCNCC2)c1N [Example C002, 5-amino-3-(2-phenylquinolin-7-yl)-1-(piperidin-4-yl)-1H-pyrazole-4-carboxamide] | 0.1 to 1 | –
CCOC(=O)[C@]1(C)C[C@@H](n2nc(-c3ccc4ccc(-c5ccccc5)nc4c3)c(C(N)=O)c2N)C1 [Example C020, ethyl (1r,3r)-3-(5-amino-4-carbamoyl-3-(2-phenylquinolin-7-yl)-1H-pyrazol-1-yl)-1-methylcyclobutane-1-carboxylate] | 0.1 to 1 | –
C[C@]1(O)C[C@H](n2nc(-c3ccc4ccc(-c5ccccc5)nc4c3)c(C(N)=O)c2N)C1 [Example C006, 5-amino-1-((1r,3r)-3-hydroxy-3-methylcyclobutyl)-3-(2-phenylquinolin-7-yl)-1H-pyrazole-4-carboxamide] | 0.1 to 1 | –
NC(=O)c1c(-c2ccc3ccc(-c4ccccc4)nc3c2)nn(C2CCN(CCO)CC2)c1N [Example C008, 5-amino-1-(1-(2-hydroxyethyl)piperidin-4-yl)-3-(2-phenylquinolin-7-yl)-1H-pyrazole-4-carboxamide] | 0.1 to 1 | –
C[C@]1(O)C[C@@H](n2nc(-c3ccc4ccc(-c5ccc(F)cc5)nc4c3)c(C(N)=O)c2N)C1 [Example C039, 5-amino-3-(2-(4-fluorophenyl)quinolin-7-yl)-1-((1s,3s)-3-hydroxy-3-methylcyclobutyl)-1H-pyrazole-4-carboxamide] | 0.1 to 1 | –
CN1CCN(C[C@H]2C[C@@H](n3nc(-c4ccc5ccc(-c6ccccc6)nc5c4)c(C(N)=O)c3N)C2)CC1 [Example C019, 5-amino-1-((1s,3s)-3-((4-methylpiperazin-1-yl)methyl)cyclobutyl)-3-(2-phenylquinolin-7-yl)-1H-pyrazole-4-carboxamide] | 0.1 to 1 | –
NC(=O)c1c(-c2ccc3ccc(-c4ccccc4)nc3c2)nn([C@H]2C[C@@H](CN3CCNCC3)C2)c1N [Example C015, 5-amino-3-(2-phenylquinolin-7-yl)-1-((1s,3s)-3-(piperazin-1-ylmethyl)cyclobutyl)-1H-pyrazole-4-carboxamide] | ≤ 0.1 | –
CCOC(=O)[C@H]1C[C@@H](n2nc(-c3ccc4ccc(-c5ccccc5)nc4c3)c(C(N)=O)c2N)C1 [Example C011, ethyl (1s,3s)-3-(5-amino-4-carbamoyl-3-(2-phenylquinolin-7-yl)-1H-pyrazol-1-yl)cyclobutane-1-carboxylate] | 0.1 to 1 | –
C[C@]1(O)C[C@@H](n2nc(-c3ccc4ccc(-c5cccc(F)c5)nc4c3)c(C(N)=O)c2N)C1 [Example C041, 5-amino-3-(2-(3-fluorophenyl)quinolin-7-yl)-1-((1s,3s)-3-hydroxy-3-methylcyclobutyl)-1H-pyrazole-4-carboxamide] | ≤ 0.1 | –
CN1CCN(C2CC(n3nc(-c4ccc5ccc(-c6ccccc6)nc5c4)c(C(N)=O)c3N)C2)CC1 (stereo not drawn) [Example C026, 5-amino-1-(3-(4-methylpiperazin-1-yl)cyclobutyl)-3-(2-phenylquinolin-7-yl)-1H-pyrazole-4-carboxamide] | ≤ 0.1 | –
NC(=O)c1c(-c2ccc3ccc(-c4ccccc4)nc3c2)nn(C2CC(N3CCOCC3)C2)c1N (stereo not drawn) [Example C023, 5-amino-1-(3-morpholinocyclobutyl)-3-(2-phenylquinolin-7-yl)-1H-pyrazole-4-carboxamide] | ≤ 0.1 | –
C[C@]1(O)C[C@@H](n2nc(-c3ccc4ccc(-c5ccccc5Br)nc4c3)c(C(N)=O)c2N)C1 [Example C038, 5-amino-3-(2-(2-bromophenyl)quinolin-7-yl)-1-((ls,3s)-3-hydroxy-3-methylcyclobutyl)-1H-pyrazole-4-carboxamide] | ≤ 0.1 | –

Now from value to molecule:

IC50 (IGF-1R) [µM] | IC50 (Ba/F3-TEL-IGF-1R cells) [µM] | SMILES
≤ 0.1 | ≤ 1 | COc1c(F)c(-c2ccccc2F)nc2cc(-c3nn([C@H]4C[C@@](C)(O)C4)c(N)c3C(N)=O)ccc12 [Example C063, 5-amino-3-(3-fluoro-2-(2-fluorophenyl)-4-methoxyquinolin-7-yl)-1-((1s,3s)-3-hydroxy-3-methylcyclobutyl)-1H-pyrazole-4-carboxamide]
≤ 0.1 | ≤ 1 | C[C@]1(O)C[C@@H](n2nc(-c3ccc4ccc(-c5ccccc5F)nc4c3F)c(C(N)=O)c2N)C1 [Example C056, 5-amino-3-(8-fluoro-2-(2-fluorophenyl)quinolin-7-yl)-1-((1s,3s)-3-hydroxy-3-methylcyclobutyl)-1H-pyrazole-4-carboxamide]
≤ 0.1 | ≤ 1 | COc1cc(-c2ccccc2F)nc2c(F)c(-c3nn([C@H]4C[C@](C)(O)C4)c(N)c3C(N)=O)ccc12 [Example C050, 5-amino-3-(8-fluoro-2-(2-fluorophenyl)-4-methoxyquinolin-7-yl)-1-((1r,3r)-3-hydroxy-3-methylcyclobutyl)-1H-pyrazole-4-carboxamide]
≤ 0.1 | ≤ 1 | COc1c(F)c(-c2ccccc2F)nc2c(F)c(-c3nn([C@H]4C[C@@](C)(O)C4)c(N)c3C(N)=O)ccc12 [Example C061, 5-amino-3-(3,8-difluoro-2-(2-fluorophenyl)-4-methoxyquinolin-7-yl)-1-((1s,3s)-3-hydroxy-3-methylcyclobutyl)-1H-pyrazole-4-carboxamide]
≤ 0.1 | – | C[C@]1(O)C[C@@H](n2nc(-c3ccc4c(OC(F)F)cc(-c5ccccc5)nc4c3)c(C(N)=O)c2N)C1 [Example C053, 5-amino-3-(4-(difluoromethoxy)-2-phenylquinolin-7-yl)-1-((1s,3s)-3-hydroxy-3-methylcyclobutyl)-1H-pyrazole-4-carboxamide]
1 to 20 | – | C[C@]1(O)C[C@@H](n2nc(-c3ccc4c(O)cc(-c5ccccc5)nc4c3F)c(C(N)=O)c2N)C1 [Example C042, 5-amino-3-(8-fluoro-4-hydroxy-2-phenylquinolin-7-yl)-1-((1s,3s)-3-hydroxy-3-methylcyclobutyl)-1H-pyrazole-4-carboxamide]
0.1 to 1 | – | COc1nc(-c2ccccc2)nc2cc(-c3nn([C@H]4C[C@@](C)(O)C4)c(N)c3C(N)=O)ccc12 [Example C064, 5-amino-1-((1s,3s)-3-hydroxy-3-methylcyclobutyl)-3-(4-methoxy-2-phenylquinazolin-7-yl)-1H-pyrazole-4-carboxamide]
0.1 to 1 | – | COc1cc(-c2ccccc2)nc2cc(-c3nn([C@H]4C[C@@](C)(O)C4)c(N)c3C(N)=O)cc(F)c12 [Example C055, 5-amino-3-(5-fluoro-4-methoxy-2-phenylquinolin-7-yl)-1-((1s,3s)-3-hydroxy-3-methylcyclobutyl)-1H-pyrazole-4-carboxamide]
≤ 0.1 | – | COc1cc(-c2ccccc2F)nc2cc(-c3nn([C@H]4C[C@](C)(O)C4)c(N)c3C(N)=O)ccc12 [Example C047, 5-amino-3-(2-(2-fluorophenyl)-4-methoxyquinolin-7-yl)-1-((1r,3r)-3-hydroxy-3-methylcyclobutyl)-1H-pyrazole-4-carboxamide]
≤ 0.1 | – | COc1cc(-c2ccccc2)nc2cc(-c3nn([C@H]4C[C@](C)(O)C4)c(N)c3C(N)=O)c(F)cc12 [Example C052, 5-amino-3-(6-fluoro-4-methoxy-2-phenylquinolin-7-yl)-1-((lr,3r)-3-hydroxy-3-methylcyclobutyl)-1H-pyrazole-4-carboxamide]
